Tests used:
F4/80 (macrophages) = assay: UUO-induced renal fibrosis in mice, F4/80 immunohistochemical staining of kidney tissues; format: in vivo, C57 mice; conditions: 10 days
Text: (§1) Modeling a UUO model mouse: C57 mice (male, 8 weeks old, weighing 20-25 g) were purchased from Zhejiang Vital River Laboratory Animal Technology Co., Ltd. After anesthesia, a 1-2 cm incision was made in the left kidney region of the abdomen, and the intestinal tract was carefully removed to expose the ureter. The ureter was ligated with double lines and cut off at the middle position of the double-line ligation. The intestinal tract was recovered, and the incision was stitched.
(§2) All animals were administered orally on the day of surgery. Animals in the sham group and vehicle group were administered a test drug vehicle (5% DMSO+5% Tween80+20% PEG400+70% H2O). All administration solutions were freshly prepared before use. The experiment ended 10 days after the administration.
(§3) The preparation method for the positive drug included weighing pirfenidone into a mortar, adding a small amount of 0.5% CMC-Na, grinding the mixture fully and uniformly, supplementing the mixture with the remaining 0.5% CMC-Na, and mixing well for use.
(§4) At the end of the experiment, the left kidney was taken and placed in 4% PFA for fixation. The kidney was conventionally sectioned and stained 24 h after the fixation.

[1] = tested on: UUO-induced renal fibrosis; assay: UUO-induced renal fibrosis in mice, H&E staining of kidney tissues; format: in vivo, C57 mice; conditions: 10 days
Text: as §1, §2, §3, §4

α-SMA = assay: UUO-induced renal fibrosis in mice, α-SMA immunohistochemical staining of kidney tissues; format: in vivo, C57 mice
Text: as §1, §2, §3, §4

[2] = tested on: UUO-induced renal fibrosis; assay: UUO-induced renal fibrosis in mice, Masson staining of collagen fibers in kidney tissues; format: in vivo, C57 mice
Text: as §1, §2, §3, §4

EPHA6 = target: T1, EPHA6 (Homo sapiens, UniProt Q9UF33); assay: EPHA6 enzyme activity assay (HTRF); format: biochemical; conditions: ATP 25 μM; read-out: IC50 against EPHA6
T1 sequence (Q9UF33 23-1036): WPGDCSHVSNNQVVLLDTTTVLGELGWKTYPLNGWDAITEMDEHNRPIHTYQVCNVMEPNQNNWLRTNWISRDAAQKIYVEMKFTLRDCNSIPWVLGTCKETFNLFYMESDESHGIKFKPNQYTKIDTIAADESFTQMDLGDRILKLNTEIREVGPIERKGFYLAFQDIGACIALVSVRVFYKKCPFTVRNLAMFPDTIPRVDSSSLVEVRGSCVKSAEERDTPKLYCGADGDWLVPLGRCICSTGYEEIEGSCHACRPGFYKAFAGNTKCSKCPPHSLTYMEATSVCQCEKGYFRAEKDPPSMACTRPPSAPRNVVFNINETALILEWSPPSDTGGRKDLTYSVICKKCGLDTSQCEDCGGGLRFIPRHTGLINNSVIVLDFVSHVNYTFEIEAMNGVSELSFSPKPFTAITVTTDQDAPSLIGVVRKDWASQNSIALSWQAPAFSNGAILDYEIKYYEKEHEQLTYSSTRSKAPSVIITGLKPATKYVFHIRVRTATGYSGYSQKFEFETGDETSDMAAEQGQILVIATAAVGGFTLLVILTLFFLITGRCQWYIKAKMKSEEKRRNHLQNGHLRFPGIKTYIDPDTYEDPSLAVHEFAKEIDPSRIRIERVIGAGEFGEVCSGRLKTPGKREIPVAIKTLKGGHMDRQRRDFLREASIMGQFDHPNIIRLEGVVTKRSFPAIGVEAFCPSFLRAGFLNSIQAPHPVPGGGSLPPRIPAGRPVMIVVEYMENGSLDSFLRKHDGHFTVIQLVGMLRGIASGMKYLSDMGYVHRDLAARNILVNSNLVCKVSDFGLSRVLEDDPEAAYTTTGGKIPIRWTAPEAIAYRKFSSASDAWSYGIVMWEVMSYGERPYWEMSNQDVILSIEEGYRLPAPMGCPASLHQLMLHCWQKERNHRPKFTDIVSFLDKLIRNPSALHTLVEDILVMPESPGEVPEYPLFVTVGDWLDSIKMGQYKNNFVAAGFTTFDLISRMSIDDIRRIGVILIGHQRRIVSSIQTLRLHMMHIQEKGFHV
Description: Replicate wells were set for the assay. 2× kinase solution was prepared with 1× kinase reaction buffer (5× buffer, 5 mM MgCl2, 1 mM DTT, H2O, and 1 mM MnCl2). 2.5 μL of EPHA6 (0.5 nM, 08-125, Carna) solution was transferred to a 384 reaction plate.

[3] = Relative body weight change in UUO model mice; format: in vivo, C57 mice; conditions: Group 7, 250 mg/kg BID P.O
Text: as §1, §2, §3
Relative body weight change=body weight on day n/body weight on day 0×100%

SMILES: Cc1c(C#Cc2cnc3ccc(N4CCC(O)CC4)nn23)cccc1C(=O)Nc1cc(Cl)cc(C(F)(F)F)c1 [compound 1, N-(3-chloro-5-(trifluoromethyl)phenyl)-3-((6-(4-hydroxypiperidin-1-yl)imidazo[1,2-b]pyridazin-3-yl)ethynyl)-2-methylbenzamide]
- expression levels of macrophages (F4/80) compared with the vehicle group (F4/80 (macrophages); 30 mpk and 100 mpk QD P.O): significantly reduced
- expression levels of macrophages (F4/80) compared with the vehicle group (F4/80 (macrophages); each dose group (3, 10, 30, 100 mpk QD P.O)): reduced expression levels of macrophages
- H&E staining of kidney tissue, compared with the vehicle group ([1]; compound 1 dose groups (3, 10, 30, 100 mg/kg QD P.O)): reduced tubular atrophy, a looser glomerular structure, and no significant thickening of tubular basement membrane
- α-SMA positive area compared with the vehicle group (α-SMA; 3 mpk QD P.O, 10 days, P<0.05 (FIG. 4B)): significantly reduced
- levels of α-SMA compared with the vehicle group (α-SMA; 10 mpk, 30 mpk and 100 mpk QD P.O, 10 days (FIG. 4B)): significantly reduced
- Masson staining positive area, quantitative analysis ([2]; 3 mpk QD P.O, 10 days (FIG. 3B)): significantly reduce the Masson staining positive area
- Masson staining, collagen deposition in the renal tubular spaces ([2]; 3 mpk, 10 mpk, 30 mpk and 100 mpk groups, QD P.O, 10 days (FIG. 3A)): significant effect in relieving the collagen deposition
- onset dose for treating renal fibrosis ([2]; UUO mice, QD P.O, 10 days): 3 mg/kg
- IC50 (EPHA6): 12.8 nM

SMILES: Cc1ccc(=O)n(-c2ccccc2)c1 [pirfenidone]
- Relative body weight change ([3]; day 0): 100 ± 0.00%
- Relative body weight change ([3]; day 1): 90.41 ± 0.25%
- Relative body weight change ([3]; day 2): 89.78 ± 0.81%
- Relative body weight change ([3]; day 3): 88.90 ± 0.75%
- Relative body weight change ([3]; day 4): 90.19 ± 0.85%
- Relative body weight change ([3]; day 5): 91.53 ± 0.62%
- Relative body weight change ([3]; day 6): 91.83 ± 0.85%
- Relative body weight change ([3]; day 7): 89.72 ± 0.68%
- Relative body weight change ([3]; day 8): 90.68 ± 0.85%
- Relative body weight change ([3]; day 9): 93.04 ± 0.66%
- Relative body weight change ([3]; day 10): 96.16 ± 1.10%
- H&E staining of kidney tissue, compared with the vehicle group ([1]; 250 mg/kg BID P.O): a looser glomerular structure and no significant material deposition in the renal tubular spaces

Source: US20260216184A1 (SHENZHEN NEWDEL BIOTECH CO., LTD., priority 2023, published 2026)
